Measured values: the NIST ThermoML archive (doi:10.1016/j.tca.2015.08.013)
Numbers after ± are expanded uncertainties.

Conditions: for surface tension liquid-gas: Drop volume; for mass density / kinematic viscosity / speed of sound / vapor or sublimation pressure: Liquid; for mass density: Vibrating tube method; for kinematic viscosity / speed of sound: 101.33 kPa; for kinematic viscosity: Capillary tube (Ostwald / Ubbelohde) method; for speed of sound: Sing-around technique in a fixed-path interferometer; for vapor or sublimation pressure: Ebulliometric method (Recirculating still)

Cc1ccc(C)o1 [2,5-dimethylfuran]
Conditions	kinematic viscosity [m2/s]	speed of sound [m/s]	surface tension liquid-gas [mN/m]	vapor or sublimation pressure [kPa]
278.15 K	6.7e-07 ± 1.4e-08	1281.9 ± 1.5	27.5 ± 0.24	–
280.65 K	6.5e-07 ± 1.4e-08	1271.1 ± 1.5	27.19 ± 0.24	–
283.15 K	6.34e-07 ± 1.4e-08	1260.2 ± 1.5	26.86 ± 0.24	–
283.16 K	–	–	–	3.015 ± 0.2
285.65 K	6.12e-07 ± 1.3e-08	1249.2 ± 1.5	26.57 ± 0.23	–
288.15 K	5.95e-07 ± 1.3e-08	1238.3 ± 1.5	26.22 ± 0.23	–
288.36 K	–	–	–	4.037 ± 0.2
290.65 K	5.79e-07 ± 1.2e-08	1227.5 ± 1.5	25.91 ± 0.23	4.575 ± 0.2
293.15 K	5.63e-07 ± 1.2e-08	1216.5 ± 1.5	25.54 ± 0.23	–
293.16 K	–	–	–	5.195 ± 0.2
295.65 K	5.48e-07 ± 1.2e-08	1206.3 ± 1.5	25.3 ± 0.23	–
298.15 K	5.34e-07 ± 1.2e-08	1194.9 ± 1.5	25 ± 0.23	–
298.25 K	–	–	–	6.75 ± 0.2
300.65 K	5.2e-07 ± 1.1e-08	1185 ± 1.5	24.67 ± 0.22	–
302.52 K	–	–	–	8.37 ± 0.2
303.15 K	5.04e-07 ± 1.1e-08	1173.3 ± 1.5	24.33 ± 0.22	–
305.65 K	4.95e-07 ± 1.1e-08	1163.8 ± 1.5	24.02 ± 0.22	–
308.15 K	4.83e-07 ± 1e-08	1151.9 ± 1.5	23.7 ± 0.22	–
309.17 K	–	–	–	11.59 ± 0.2
310.65 K	4.71e-07 ± 1e-08	1142.5 ± 1.5	23.34 ± 0.22	–
313.15 K	–	–	23.01 ± 0.21	–

Conditions	mass density [kg/m3]
278.15 K, 99 kPa	917.53 ± 0.23
280.65 K, 99 kPa	914.899 ± 0.23
283.15 K, 99 kPa	912.247 ± 0.23
283.15 K, 100 kPa	912.25 ± 0.29
283.15 K, 2500 kPa	914.37 ± 0.3
283.15 K, 5000 kPa	916.47 ± 0.3
283.15 K, 7500 kPa	918.52 ± 0.31
283.15 K, 10000 kPa	920.53 ± 0.31
283.15 K, 20000 kPa	928.2 ± 0.33
283.15 K, 30000 kPa	935.24 ± 0.34
283.15 K, 40000 kPa	941.89 ± 0.35
283.15 K, 50000 kPa	948.12 ± 0.36
283.15 K, 60000 kPa	953.98 ± 0.37
285.65 K, 99 kPa	909.614 ± 0.23
288.15 K, 99 kPa	906.988 ± 0.23
288.15 K, 100 kPa	906.99 ± 0.29
288.15 K, 2500 kPa	909.13 ± 0.3
288.15 K, 5000 kPa	911.29 ± 0.3
288.15 K, 7500 kPa	913.42 ± 0.31
288.15 K, 10000 kPa	915.49 ± 0.31
288.15 K, 20000 kPa	923.34 ± 0.33
288.15 K, 30000 kPa	930.62 ± 0.35
288.15 K, 40000 kPa	937.41 ± 0.36
288.15 K, 50000 kPa	943.72 ± 0.37
288.15 K, 60000 kPa	949.78 ± 0.37
290.65 K, 99 kPa	904.299 ± 0.23
293.15 K, 99 kPa	901.636 ± 0.23
293.15 K, 100 kPa	901.64 ± 0.29
293.15 K, 2500 kPa	903.82 ± 0.3
293.15 K, 5000 kPa	906.07 ± 0.3
293.15 K, 7500 kPa	908.26 ± 0.31
293.15 K, 10000 kPa	910.4 ± 0.31
293.15 K, 20000 kPa	918.5 ± 0.33
293.15 K, 30000 kPa	925.97 ± 0.35
293.15 K, 40000 kPa	932.94 ± 0.36
293.15 K, 50000 kPa	939.57 ± 0.37
293.15 K, 60000 kPa	945.6 ± 0.38
295.65 K, 99 kPa	898.951 ± 0.23
298.15 K, 99 kPa	896.285 ± 0.23
298.15 K, 100 kPa	896.29 ± 0.29
298.15 K, 2500 kPa	898.6 ± 0.3
298.15 K, 5000 kPa	900.94 ± 0.3
298.15 K, 7500 kPa	903.16 ± 0.31
298.15 K, 10000 kPa	905.39 ± 0.32
298.15 K, 20000 kPa	913.73 ± 0.34
298.15 K, 30000 kPa	921.4 ± 0.35
298.15 K, 40000 kPa	928.44 ± 0.37
298.15 K, 50000 kPa	935.19 ± 0.38
298.15 K, 60000 kPa	941.44 ± 0.39
300.65 K, 99 kPa	893.569 ± 0.23
303.15 K, 99 kPa	890.898 ± 0.23
303.15 K, 100 kPa	890.9 ± 0.29
303.15 K, 2500 kPa	893.25 ± 0.3
303.15 K, 5000 kPa	895.65 ± 0.3
303.15 K, 7500 kPa	897.97 ± 0.31
303.15 K, 10000 kPa	900.25 ± 0.32
303.15 K, 20000 kPa	908.83 ± 0.34
303.15 K, 30000 kPa	916.74 ± 0.36
303.15 K, 40000 kPa	924.06 ± 0.37
303.15 K, 50000 kPa	930.89 ± 0.39
303.15 K, 60000 kPa	937.27 ± 0.4
305.65 K, 99 kPa	888.151 ± 0.23
308.15 K, 99 kPa	885.447 ± 0.23
308.15 K, 100 kPa	885.45 ± 0.29
308.15 K, 2500 kPa	887.9 ± 0.3
308.15 K, 5000 kPa	890.36 ± 0.31
308.15 K, 7500 kPa	892.78 ± 0.31
308.15 K, 10000 kPa	895.14 ± 0.32
308.15 K, 20000 kPa	903.98 ± 0.34
308.15 K, 30000 kPa	912.1 ± 0.36
308.15 K, 40000 kPa	919.56 ± 0.38
308.15 K, 50000 kPa	926.54 ± 0.39
308.15 K, 60000 kPa	933.08 ± 0.4
310.65 K, 99 kPa	882.693 ± 0.23
313.15 K, 99 kPa	879.927 ± 0.23
